In ChEMBL document CHEMBL1201862, “PubChem BioAssay data set” (2004):
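Cultured in 96-well plates, cells were exposed to test compound for 48 hours across five concentrations. GI50 is the concentration that inhibits growth by half.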 Active and inactive are the calls of the source. Rule as the data show it: active = GI50 up to about 1.1 µM and inactive = higher.

Columns and labels:
Assay in all cases: inhibition of tumour cell growth, NCI panel, 48 h
[1] = test system: 786-0
[2] = test system: A498
[3] = test system: A549
[4] = test system: ACHN
[5] = test system: CAKI-1
[6] = test system: CCRF-CEM
[7] = test system: COLO 205
[8] = test system: DLD-1
[9] = test system: DMS-114
[10] = test system: DMS-273
[11] = test system: EKVX
[12] = test system: HCC 2998
[13] = test system: HCT-116
[14] = test system: HCT-15
[15] = test system: HL-60
[16] = test system: HOP-18
[17] = test system: HOP-62
[18] = test system: HOP-92
[19] = test system: IGROV-1
[20] = test system: K562
[21] = test system: KM-20L2
[22] = test system: KM12
[23] = test system: LOX IMVI
[24] = test system: LXFL 529
[25] = test system: M14
[26] = test system: M19-MEL
[27] = test system: MOLT-4
[28] = test system: Malme-3M
[29] = test system: NCI-H226
[30] = test system: NCI-H23
[31] = test system: NCI-H460
[32] = test system: NCI-H522
[33] = test system: OVCAR-3
[34] = test system: OVCAR-4
[35] = test system: OVCAR-5
[36] = test system: OVCAR-8
[37] = test system: RXF 393
[38] = test system: RXF 631
[39] = test system: SF-268
[40] = test system: SF-295
[41] = test system: SF-539
[42] = test system: SK-MEL-28
[43] = test system: SK-MEL-2
[44] = test system: SK-MEL-5
[45] = test system: SK-OV-3
[46] = test system: SN12C
[47] = test system: SNB-19
[48] = test system: SNB-75
[49] = test system: SNB-78
[50] = test system: SR
[51] = test system: SW-620
[52] = test system: TK-10
[53] = test system: U-251
[54] = test system: UACC-257
[55] = test system: UACC-62
[56] = test system: UO-31
[57] = test system: XF498
[58] = test system: HT-29
[59] = test system: RPMI-8226

With `Cc1cc([N+](=O)[O-])ccc1Sc1c2ccccc2nc2cc(Cl)ccc12` the GI50 [1] was 35.2 µM (inactive), the GI50 [2] was > 100 µM (inactive) and the GI50 [3] was 46.5 µM (inactive). The GI50 [4] was 44.9 µM (inactive), the GI50 [5] was 26.2 µM (inactive) and the GI50 [6] was 28.1 µM (inactive). For the same molecule, the GI50 [7] was 38.4 µM (inactive), the GI50 [8] was 36.3 µM (inactive) and the GI50 [9] was 25.4 µM (inactive). For the same molecule, the GI50 [10] was 26.9 µM (inactive), the GI50 [11] was 40.6 µM (inactive) and the GI50 [12] was > 100 µM (inactive). The GI50 [13] was 28.1 µM (inactive), the GI50 [14] was 51.4 µM and the GI50 [15] was 5.78 µM (inactive). For the same molecule, the GI50 [16] was 34.8 µM (inactive), the GI50 [17] was 73.5 µM (inactive) and the GI50 [18] was 23.4 µM (inactive). The GI50 [19] was 46.2 µM (inactive), the GI50 [20] was 36.1 µM (inactive) and the GI50 [21] was 20.4 µM (inactive). For the same molecule, the GI50 [22] was 18.6 µM (inactive), the GI50 [23] was 24.9 µM (inactive) and the GI50 [24] was 31 µM (inactive). The GI50 [25] was 40.8 µM (inactive), the GI50 [26] was 43 µM (inactive) and the GI50 [27] was 21.3 µM (inactive). The GI50 [28] was > 100 µM (inactive), the GI50 [29] was 61.5 µM (inactive) and the GI50 [30] was 28.8 µM (inactive). For the same molecule, the GI50 [31] was 36.6 µM (inactive), the GI50 [32] was 27.7 µM (inactive) and the GI50 [33] was 28.3 µM (inactive). For the same molecule, the GI50 [34] was 41.4 µM (inactive), the GI50 [35] was 56.2 µM (inactive) and the GI50 [36] was 21.8 µM (inactive). The GI50 [37] was 84.5 µM (inactive), the GI50 [38] was 49.1 µM (inactive) and the GI50 [39] was 29.6 µM (inactive). For the same molecule, the GI50 [40] was 45.8 µM (inactive), the GI50 [41] was 25.9 µM (inactive) and the GI50 [42] was > 100 µM (inactive). For the same molecule, the GI50 [43] was 22.9 µM (inactive), the GI50 [44] was 39.4 µM (inactive) and the GI50 [45] was 47.2 µM (inactive). The GI50 [46] was 30.8 µM (inactive), the GI50 [47] was 41.3 µM (inactive) and the GI50 [48] was 30.8 µM (inactive). For the same molecule, the GI50 [49] was 41.3 µM (inactive), the GI50 [50] was 26.9 µM (inactive) and the GI50 [51] was 31.2 µM (inactive). The GI50 [52] was 55.6 µM (inactive), the GI50 [53] was 27.8 µM (inactive) and the GI50 [54] was 73.6 µM (inactive). The GI50 [55] was 34.5 µM (inactive), the GI50 [56] was 45.2 µM (inactive) and the GI50 [57] was 23 µM (inactive).

`COC(=O)C(C(=O)c1ccccc1)C(C(=O)C(=O)Nc1ccc(OC)cc1OC)C(=O)C(=O)c1ccc(C)cc1` (stereo not given) was tested, and the GI50 [1] was > 100 µM (inactive), the GI50 [2] was > 100 µM (inactive) and the GI50 [3] was > 100 µM (inactive). For the same molecule, the GI50 [4] was > 100 µM (inactive), the GI50 [5] was > 100 µM (inactive) and the GI50 [6] was > 100 µM (inactive). The GI50 [7] was > 100 µM (inactive), the GI50 [8] was > 100 µM (inactive) and the GI50 [9] was > 100 µM (inactive). The GI50 [10] was > 100 µM (inactive), the GI50 [11] was > 100 µM (inactive) and the GI50 [12] was > 100 µM (inactive). For the same molecule, the GI50 [13] was > 100 µM (inactive), the GI50 [14] was greater than 100 µM and the GI50 [15] was > 100 µM (inactive). For the same molecule, the GI50 [16] was > 100 µM (inactive), the GI50 [17] was > 100 µM (inactive) and the GI50 [58] was > 100 µM (inactive). The GI50 [19] was > 100 µM (inactive), the GI50 [20] was > 100 µM (inactive) and the GI50 [21] was > 100 µM (inactive). The GI50 [22] was > 100 µM (inactive), the GI50 [23] was > 100 µM (inactive) and the GI50 [24] was > 100 µM (inactive). The GI50 [25] was > 100 µM (inactive), the GI50 [26] was > 100 µM (inactive) and the GI50 [27] was > 100 µM (inactive). The GI50 [28] was > 100 µM (inactive), the GI50 [29] was > 100 µM (inactive) and the GI50 [30] was > 100 µM (inactive). The GI50 [31] was > 100 µM (inactive), the GI50 [32] was > 100 µM (inactive) and the GI50 [33] was > 100 µM (inactive). The GI50 [34] was > 100 µM (inactive), the GI50 [35] was > 100 µM (inactive) and the GI50 [36] was > 100 µM (inactive). The GI50 [59] was > 100 µM (inactive), the GI50 [37] was > 100 µM (inactive) and the GI50 [38] was > 100 µM (inactive). For the same molecule, the GI50 [39] was > 100 µM (inactive), the GI50 [40] was > 100 µM (inactive) and the GI50 [41] was > 100 µM (inactive). For the same molecule, the GI50 [42] was > 100 µM (inactive), the GI50 [43] was > 100 µM (inactive) and the GI50 [44] was > 100 µM (inactive). For the same molecule, the GI50 [45] was > 100 µM (inactive), the GI50 [46] was > 100 µM (inactive) and the GI50 [47] was > 100 µM (inactive). For the same molecule, the GI50 [48] was > 100 µM (inactive), the GI50 [49] was > 100 µM (inactive) and the GI50 [50] was > 100 µM (inactive). The GI50 [51] was > 100 µM (inactive), the GI50 [52] was > 100 µM (inactive) and the GI50 [53] was > 100 µM (inactive). For the same molecule, the GI50 [54] was > 100 µM (inactive), the GI50 [55] was > 100 µM (inactive) and the GI50 [56] was > 100 µM (inactive). The GI50 [57] was > 100 µM (inactive).
